Measurements as given in PubChem BioAssay AID463136 (University of Pittsburgh Molecular Library Screening Center, 2010).
Records with an inconclusive call do not appear. Activity calls are given as the source filed them. No rule for the calls is given here.

Columns and labels:
[1] = dynein cargo transport inhibitors, potency, dose response, imaging, high-content imaging (AID 463136); conditions: HCS imaging, dynein-mediated cargo transport inhibition; inhibition at max concentration; at 50 µM; stronger effect = higher value;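 also: mouse mammary adenocarcinoma 3617.4 cells expressing GFP-tagged rat glucocorticoid receptor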; as to inhibition: reference of the scale not given here
[2] = tested on: HCS imaging, dynein-mediated cargo transport inhibition; assay: as above

COC1=C(C)C(O)=C(C(=O)/C=C/c2ccccc2)C(=O)C1(C)C
inhibition [1]: 88.2% | IC50 [2]: 12.2 µM

CCCCNc1c2c3c(cccc3n(C)c1=O)C(=O)c1ccccc1-2
inhibition [1]: 12% | IC50 [2]: > 50 µM (inactive)

O=C1C(Cl)=C(Nc2ccc3cn[nH]c3c2)C(=O)c2ccccc21
inhibition [1]: 66.6% | IC50 [2]: 18.2 µM

Nc1nc(Sc2c([N+](=O)[O-])cc(C(F)(F)F)cc2[N+](=O)[O-])n[nH]1
inhibition [1]: 44.1% | IC50 [2]: 21.9 µM

N#C/C(=C\c1cccc([N+](=O)[O-])c1)C(=O)NCc1ccc(Cl)cc1
inhibition [1]: 13.8% | IC50 [2]: > 50 µM (inactive)

CCOC(=O)C(=Cc1c[nH]c2ccc(S(=O)(=O)N(C)C)cc12)C(=O)OCC
inhibition [1]: 92.8% | IC50 [2]: 29.5 µM

CCN(CC)c1ccc(/C=C/C(=O)c2ccc(Br)cc2)cc1
inhibition [1]: 7.65% | IC50 [2]: > 50 µM (inactive)

COc1ccc(-n2nc(C#N)c(Cl)cc2=O)cc1
inhibition [1]: 65.4% | IC50 [2]: 8.09 µM

O=C1c2ccccc2-c2onc3ccc(NCc4ccco4)c1c23
inhibition [1]: 87.2% | IC50 [2]: 41.4 µM

O=C(CCl)Nc1ccc(-c2ccccc2)cc1
inhibition [1]: 66% | IC50 [2]: 14.3 µM

CC(=O)O[C@@H]1C[C@H]2C(C)(C)C(=O)C=C[C@]2(C)[C@H]2CC[C@@]3(C)[C@H](c4ccoc4)OC(=O)[C@H]4O[C@]43[C@@]21C
inhibition [1]: 77.9% | IC50 [2]: 33.6 µM

N#C/C(=C/c1ccc(N2CCCCC2)o1)C(=O)Nc1ccc(Cl)cc1
inhibition [1]: 97.4% | IC50 [2]: 40.4 µM

O=C(CCl)N(CCCNC(=O)C(F)(F)F)c1ccc([N+](=O)[O-])cc1
inhibition [1]: 83.1% | IC50 [2]: 10.8 µM

CC[n+]1c(/C=C/C=C/N(C(C)=O)c2ccccc2)sc2cc(OC)ccc21
inhibition [1]: 93.8% | IC50 [2]: 6.65 µM

O=c1cc(N=Nc2ccc(Cl)cc2)[nH]c(=O)[nH]1
inhibition [1]: 80.6% | IC50 [2]: 13.6 µM

C#CC(=O)N(c1cccc(OC)c1)C(C(=O)NC1CCCC1)c1cccs1 (configuration not stated)
inhibition [1]: 16.5% | IC50 [2]: > 50 µM (inactive)

O=C(NCc1cccnc1)/C(=C\c1ccc(-c2ccc(Br)cc2)o1)S(=O)(=O)c1ccccc1
inhibition [1]: 55.1% | IC50 [2]: 39.4 µM

O=[N+]([O-])c1c(NCCCO)cc(Sc2nc3ccccc3s2)c2nonc12
inhibition [1]: -7.73% | IC50 [2]: > 50 µM (inactive)

Cc1cccc2cc3c(N)c(C(=O)N4CCc5ccccc54)sc3nc12
IC50 [2]: 5.15 µM

CCN1CCN(C2=C(Cl)C(=O)N(Cc3ccccc3)C2=O)CC1
inhibition [1]: 87.8% | IC50 [2]: 20.9 µM

O=c1oc2c3c4c(cc2c(C(F)(F)F)c1CCN1CCOCC1)CCCN4CCC3
inhibition [1]: 99.3% | IC50 [2]: 36.4 µM

O=c1c(Cl)c(Cl)cnn1Cc1ccccc1Cl
inhibition [1]: 51.4% | IC50 [2]: 23.8 µM

Cc1nc([N+](=O)[O-])c(Br)n1CC(=O)c1cccc([N+](=O)[O-])c1
inhibition [1]: 91.4% | IC50 [2]: 9.94 µM

BrC(=C\c1ccccc1)/C=N/n1cnnc1
inhibition [1]: 90.7% | IC50 [2]: 18.4 µM

COCCCNC(=O)c1ccc2c3c(onc13)-c1ccccc1C2=O
inhibition [1]: 98.1% | IC50 [2]: 16.7 µM

O=C(Cn1ncc(Cl)c(Cl)c1=O)N1CCN(Cc2ccccc2)CC1
inhibition [1]: 62.9% | IC50 [2]: 5.63 µM

O=C(CCl)Nc1cc(-c2ccccc2)nn1-c1ccccc1
inhibition [1]: 81.4% | IC50 [2]: 11.8 µM

CCOC(=O)c1c(-n2c(C)cc(C=C3C(=O)NC(=S)NC3=O)c2C)sc2c1CCCC2
inhibition [1]: 78.1% | IC50 [2]: 5.75 µM

COc1ccc(-c2cc(C(F)(F)F)nc(S(=O)(=O)CCCC(=O)Nc3cc(C)on3)n2)cc1OC
inhibition [1]: 67.2% | IC50 [2]: 42.9 µM

N#Cc1cccc(NC(=O)CSc2ccc3c4c(cccc24)C(=O)c2ccccc2-3)c1
inhibition [1]: 104% | IC50 [2]: 33.3 µM

O=[N+]([O-])c1ccc(Sc2nnnn2-c2ccccc2)nc1
inhibition [1]: 81.6% | IC50 [2]: 7.59 µM

N#C/C(=C/c1ccc(N2CCCCC2)o1)C(=O)Nc1ccc2ccccc2c1
inhibition [1]: 98.5% | IC50 [2]: 27.4 µM

CN(C(=O)CCl)C1CCCc2ccccc21 (configuration not stated)
inhibition [1]: 70.4% | IC50 [2]: 6.32 µM

O=C(CCl)N(Cc1ccccc1)c1ccccc1
inhibition [1]: 69.4% | IC50 [2]: 10 µM

COC/C=C/C1=CC2=CC(=O)C(C)(OC(=O)c3cnc4ccccc4n3)C(=O)C2=CN1Cc1ccc(OC)cc1 (configuration not stated)
inhibition [1]: 89.5% | IC50 [2]: 15 µM

Cc1ccc(/C=C2/C(=O)ON=C2c2ccccc2)o1
inhibition [1]: 15.6% | IC50 [2]: > 50 µM (inactive)

CCSc1nc2ccccc2n1C(=O)/C=C\c1ccc(OC)c(OC)c1
inhibition [1]: 7.37% | IC50 [2]: > 50 µM (inactive)

O=c1[nH]sc2ccccc12
inhibition [1]: 91% | IC50 [2]: 10.9 µM

Cc1c(C#N)c(NC(=O)CCl)n(Cc2cccs2)c1C
inhibition [1]: 69.2% | IC50 [2]: 24.7 µM

COc1ccc(C(=O)Cn2c(C)nc([N+](=O)[O-])c2Br)cc1
inhibition [1]: 86.4% | IC50 [2]: 3.56 µM

CNC(=O)c1nnsc1S(=O)c1ccc(Cl)cc1 (configuration not stated)
inhibition [1]: 74.6% | IC50 [2]: 7.18 µM

CC[n+]1c(/C=C2\Sc3ccccc3N2C)ccc2cccc(C)c21
inhibition [1]: 28.3% | IC50 [2]: 0.765 µM

O=C1/C(=C\c2cccnc2)CN(Cc2ccccc2)C/C1=C\c1cccnc1
inhibition [1]: 83.3% | IC50 [2]: 15.5 µM

Nc1cccc2c1C(=O)N(C(=O)/C=C/c1ccc(F)cc1)C2=O
inhibition [1]: 37.6% | IC50 [2]: > 50 µM (inactive)

CCOC(=O)C(=Cc1cc(=O)c(OC)co1)C(=O)OCC
inhibition [1]: 87.9% | IC50 [2]: 6.45 µM

COc1ccc2c(c1)c1ccc3c(c1n2C)C(=O)C=CC3=O
inhibition [1]: 93.1% | IC50 [2]: 14.5 µM

COc1ccc(CN=Cc2[nH]c3ccc(Br)c(Cl)c3c2O)cc1
inhibition [1]: 93.4% | IC50 [2]: 28.5 µM

CC(=O)c1sc2nc(-c3cccs3)cc(C(F)(F)F)c2c1N
inhibition [1]: 86% | IC50 [2]: 21.6 µM

N#C/C(=C/c1ccc(N2CCCCCC2)o1)c1ccc(F)cc1
inhibition [1]: 33.8% | IC50 [2]: > 50 µM (inactive)

Cc1ccccc1-n1sc2cc(F)ccc2c1=O
inhibition [1]: 96.2% | IC50 [2]: 13.6 µM

O=c1c(Cl)c(Cl)cnn1Cc1ccc(F)cc1
inhibition [1]: 80.4% | IC50 [2]: 10.3 µM

O=[N+]([O-])c1ccc(/C=C/C2=NN(c3ccccc3)C(c3ccco3)C2)o1 (configuration not stated)
inhibition [1]: 37.1% | IC50 [2]: > 50 µM (inactive)

Cc1ccc(/C=C2\CCC3=C2OC(N)=C(C#N)C3c2ccc(C)cc2)cc1 (configuration not stated)
inhibition [1]: 111% | IC50 [2]: 3.23 µM

O=C(/C(=C/c1ccc(Cl)cc1)c1nc2ccccc2[nH]1)c1cccs1
inhibition [1]: 81.7% | IC50 [2]: 24.9 µM

CCN1C/C(=C/c2cccc([N+](=O)[O-])c2)C(=O)/C(=C/c2cccc([N+](=O)[O-])c2)C1
inhibition [1]: 84.7% | IC50 [2]: 22.6 µM

CC(C)CC(=O)/C=C/n1c(=S)oc2ccccc21
inhibition [1]: 24.5% | IC50 [2]: > 50 µM (inactive)

COc1ccc(N(C(=O)CCl)C(C(=O)NC2CCCCC2)c2cccnc2)cc1 (configuration not stated)
inhibition [1]: 85.5% | IC50 [2]: 13.3 µM

C=CS(=O)c1sc(Cl)c(N2CCOCC2)c1[N+](=O)[O-] (configuration not stated)
inhibition [1]: 57.1% | IC50 [2]: 45.6 µM

CNCc1ccccc1Sc1cc(O)ccc1O
inhibition [1]: 74.1% | IC50 [2]: 38.5 µM

Cc1cc(N2CCCC2)c(F)cc1/C=C\[N+](=O)[O-]
inhibition [1]: 126% | IC50 [2]: 25.2 µM

COC(C/C=C/C(=O)COCc1ccccc1)OC
inhibition [1]: 69.3% | IC50 [2]: 8.5 µM

O=[N+]([O-])c1ccc(C2=NN(c3ccccc3)C(c3ccco3)C2)cc1 (configuration not stated)
IC50 [2]: 32.3 µM
